Measured values reported in patent publication US11105813B2, “Method for target protein identification using thermal stability shift-based fluorescence difference in two-dimensional gel electrophoresis” (priority 2016, dated 2021).

Assays:
nucleophosmin (NPM) = target: T1, nucleophosmin (NPM) (Homo sapiens, UniProt P06748); test: CETSA and isothermal dose-response, NPM; type: cell-based; conditions: HEK293T cells, compared to β-tubulin and GAPDH
T1 construct: hordenine with HEK293T cells at 20 μM for 3 h; endogenous in cells; host or cells: HEK293T
T1 sequence (P06748 whole entry): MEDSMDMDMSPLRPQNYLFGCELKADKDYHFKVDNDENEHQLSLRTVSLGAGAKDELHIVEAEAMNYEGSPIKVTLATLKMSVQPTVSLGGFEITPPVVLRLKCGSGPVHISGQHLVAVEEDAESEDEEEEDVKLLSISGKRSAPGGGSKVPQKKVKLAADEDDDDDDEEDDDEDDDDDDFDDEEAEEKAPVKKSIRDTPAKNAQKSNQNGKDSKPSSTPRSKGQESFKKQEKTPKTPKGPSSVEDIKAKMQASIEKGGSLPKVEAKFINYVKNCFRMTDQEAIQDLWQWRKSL
Experimental: (§1) Western blot—The soluble fraction was mixed with 5×Laemmli buffer followed by heating at 95° C. for 5 min. Proteins were separated by SDS-PAGE and transferred to PVDF membranes. The membranes were in tris-buffered saline with Tween-20 (TBST) including 2% BSA for 1 h at 4° C., and incubated with primary antibodies (anti-DHFR [ab133546, abcam], anti-TYMS [3766, Cell signaling], anti-PKCα [2056, Cell signaling], anti-PKCβI [ab195039, abcam], anti-PKCβII [ab32026, abcam], anti-PKCγ [402 ab131222, abcam], anti-PKCδ [9616, Cell signaling], anti-PKCε [ab124806, abcam], anti-PKCμ [2052, Cell signaling], anti-PKCθ [ab110728, abcam], anti-PKCζ [9368, Cell signaling], anti-NPM [ab52644, abcam], anti-RPSA [ab133645, abcam], anti-SET [ab176567, abcam], anti-EEF1D [ab88868, abcam], anti-GAPDH [2118, Cell signaling], and anti-β-tubulin [2146, Cell signaling])) overnight. The membrane was then washed with TBST and incubated with secondary antibodies (anti-rabbit IgG, HRP linked [7074, Cell signaling]) for 1 h at room temperature. The membranes were developed with Amersham ECL prime western blotting detection reagent [GE Healthcare], and detected by ChemiDoc [Bio-Rad]. The relative band intensities to 37° C. was calculated within each of drug-treated group and control group each for the CETSA curves. For ITDR curves, the relative band intensities to DMSO group was calculated.

[1] = target: T2, 40S ribosomal protein SA (RPSA) (Homo sapiens, UniProt P08865); test: CETSA, RPSA; type: cell-based; conditions: HEK293T cells
T2 construct: hordenine with HEK293T cells at 20 μM for 3 h; endogenous in cells; host or cells: HEK293T
Experimental: as §1

[2] = target: T3, elongation factor 1-delta (EEF1D) (Homo sapiens, UniProt P29692); test: CETSA, EEF1D; type: cell-based; conditions: HEK293T cells
T3 construct: hordenine with HEK293T cells at 20 μM for 3 h; endogenous in cells; host or cells: HEK293T
T3 sequence (P29692 1-281): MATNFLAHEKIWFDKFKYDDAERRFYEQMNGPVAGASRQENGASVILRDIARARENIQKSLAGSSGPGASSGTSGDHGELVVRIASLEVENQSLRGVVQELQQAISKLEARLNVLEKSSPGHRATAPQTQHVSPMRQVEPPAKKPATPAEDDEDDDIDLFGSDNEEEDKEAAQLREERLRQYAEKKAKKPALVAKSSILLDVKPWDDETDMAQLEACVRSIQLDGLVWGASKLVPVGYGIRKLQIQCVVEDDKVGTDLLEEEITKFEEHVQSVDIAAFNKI
Experimental: as §1

protein SET (SET) = target: T4, protein SET (SET) (Homo sapiens, UniProt Q01105); test: CETSA, SET; type: cell-based; conditions: HEK293T cells
T4 construct: hordenine with HEK293T cells at 20 μM for 3 h; endogenous in cells; host or cells: HEK293T
T4 sequence (Q01105 whole entry): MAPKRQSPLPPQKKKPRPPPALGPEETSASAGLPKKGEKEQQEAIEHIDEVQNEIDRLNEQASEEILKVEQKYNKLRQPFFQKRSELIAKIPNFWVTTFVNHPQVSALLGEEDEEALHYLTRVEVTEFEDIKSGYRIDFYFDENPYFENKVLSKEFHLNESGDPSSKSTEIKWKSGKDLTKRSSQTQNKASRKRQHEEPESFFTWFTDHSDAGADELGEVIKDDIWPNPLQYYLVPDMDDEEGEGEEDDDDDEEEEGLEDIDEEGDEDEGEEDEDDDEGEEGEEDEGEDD
Experimental: as §1

[3] = test system: translation of the luciferase reporter gene; test: In vitro protein translation (luciferase reporter); type: biochemical; conditions: 30° C. for 1 h
Experimental: (§2) In vitro protein translation—TNT quick coupled transcription/translation system [Promega] was used for in vitro translation. TNT Quick Master Mix and T7 luciferase control DNA were mixed according to the manufacturer's protocol, and incubated with compounds at 30° C. for 1 h. After the addition of Luciferase assay reagent [Promega], luminescence from the control luciferase product was read by Synergy HT [BioTek] to measure the effect of compounds on protein translation.

NPM = target: T5, NPM (Oryctolagus cuniculus, UniProt G1T0N4); test: Nucleophosmin depletion for functional validation (in vitro translation); type: biochemical; conditions: 10 μM of hordenine, 30° C. for 1 h
T5 construct: incubated with the in vitro translation system to scavenge NPM; tissue Promega; host or cells: TNT Quick Master Mix (reticulocyte lysate, own knowledge)
T5 sequence (G1T0N4 1-294): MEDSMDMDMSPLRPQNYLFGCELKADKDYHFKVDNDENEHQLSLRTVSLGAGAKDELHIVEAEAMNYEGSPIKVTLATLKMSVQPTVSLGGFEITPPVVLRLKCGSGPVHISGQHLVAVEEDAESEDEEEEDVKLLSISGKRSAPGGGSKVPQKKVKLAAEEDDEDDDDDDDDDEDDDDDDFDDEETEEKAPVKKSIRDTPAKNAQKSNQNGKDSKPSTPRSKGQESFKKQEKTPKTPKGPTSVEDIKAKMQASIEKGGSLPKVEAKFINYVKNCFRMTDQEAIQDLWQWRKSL
Experimental: as §2
Nucleophosmin depletion for functional validation—Protein G sepharose beads [Sigma] were washed with PBS and incubated with anti-NPM antibody at 4° C. for 2 h. Unbound antibodies were washed away. The anti-NPM bound Protein G beads were mixed with TNT Quick Master Mix and incubated at 4° C. for 2 h. The beads were removed by centrifugation, and the supernatant was incubated with T7 luciferase control DNA and 10 μM of hordenine at 30° C. for 1 h. Luminescence was read after the addition of Luciferase assay reagent.

PKCα [4] = target: T6, PKCα (Homo sapiens, UniProt P17252); test: CETSA and isothermal dose-response, PKCα; type: cell-based; conditions: Jurkat cells, 48° C.
T6 construct: Jurkat cell was used for bryostatin 1; endogenous in cells; host or cells: Jurkat clone E6-1
Experimental: HEK293T cells were harvested with trypsin/EDTA solution and resuspended in a conical tube before compound treatment. […] After the compound treatment, cells were aliquoted, heated to a range of temperature for 3 min, and cooled to 25° C. for 3 min. The heated cells were harvested, washed with PBS, and resuspended with lysis buffer (PBS supplemented with protease inhibitor cocktail). The cell suspension was freeze-thawed three times with liquid nitrogen for cell lysis. Soluble fraction was separated from the cell lysate following centrifugation at 20,000 g for 20 min at 4° C. Procedures for isothermal dose-response (ITDR) analysis was identical with the above-mentioned procedures except that cells were treated with various compound concentrations and heated at a fixed temperature.
Western blot—The soluble fraction was mixed with 5×Laemmli buffer followed by heating at 95° C. for 5 min. Proteins were separated by SDS-PAGE and transferred to PVDF membranes. […] The membranes were developed with Amersham ECL prime western blotting detection reagent [GE Healthcare], and detected by ChemiDoc [Bio-Rad]. The relative band intensities to 37° C. was calculated within each of drug-treated group and control group each for the CETSA curves. For ITDR curves, the relative band intensities to DMSO group was calculated. […]

PKCα [5] = target: T6, PKCα; test: Translocation of PKCα between soluble and insoluble fraction (western blot); type: cell-based; conditions: lysis buffer without a mild detergent

CN(C)CCc1ccc(O)cc1 [hordenine, N,N-dimethyltyramine]
thermal stability shift of NPM (CETSA) (nucleophosmin (NPM)): significant thermal stabilization
thermal stability shift of RPSA (CETSA) [1]: did not
thermal stability shift of EEF1D (CETSA) [2]: did not
thermal stability shift of SET (CETSA) (protein SET (SET)): did not
effect on translation of the luciferase reporter gene [3]: increase the translation
upregulating efficacy on luciferase gene translation diminished after NPM depletion (NPM): 72.7%

CCC/C=C/C=C/C(=O)O[C@H]1/C(=C/C(=O)OC)C[C@H]2C[C@H]([C@@H](C)O)OC(=O)C[C@H](O)C[C@@H]3C[C@H](OC(C)=O)C(C)(C)[C@](O)(C[C@@H]4C/C(=C/C(=O)OC)C[C@H](/C=C/C(C)(C)[C@]1(O)O2)O4)O3 [bryostatin 1]
isothermal dose-response of PKCα (PKCα [4]): dose-dependent thermal destabilization
location of PKCα (soluble / insoluble fraction) (PKCα [5]): moved to insoluble fraction
